The text below walks through data of patent US6716883B1, “Composition useful to treat periodontal disease” (priority 1998, dated 2004).

Assay [1] has as its target T1, AhR in SBMC cells (Rattus norvegicus, UniProt P41738).
T1 construct: endogenous in cells; host or cells: rat stromal bone marrow cell line (RSBMC / SBMC)
T1 sequence (P41738 10-853): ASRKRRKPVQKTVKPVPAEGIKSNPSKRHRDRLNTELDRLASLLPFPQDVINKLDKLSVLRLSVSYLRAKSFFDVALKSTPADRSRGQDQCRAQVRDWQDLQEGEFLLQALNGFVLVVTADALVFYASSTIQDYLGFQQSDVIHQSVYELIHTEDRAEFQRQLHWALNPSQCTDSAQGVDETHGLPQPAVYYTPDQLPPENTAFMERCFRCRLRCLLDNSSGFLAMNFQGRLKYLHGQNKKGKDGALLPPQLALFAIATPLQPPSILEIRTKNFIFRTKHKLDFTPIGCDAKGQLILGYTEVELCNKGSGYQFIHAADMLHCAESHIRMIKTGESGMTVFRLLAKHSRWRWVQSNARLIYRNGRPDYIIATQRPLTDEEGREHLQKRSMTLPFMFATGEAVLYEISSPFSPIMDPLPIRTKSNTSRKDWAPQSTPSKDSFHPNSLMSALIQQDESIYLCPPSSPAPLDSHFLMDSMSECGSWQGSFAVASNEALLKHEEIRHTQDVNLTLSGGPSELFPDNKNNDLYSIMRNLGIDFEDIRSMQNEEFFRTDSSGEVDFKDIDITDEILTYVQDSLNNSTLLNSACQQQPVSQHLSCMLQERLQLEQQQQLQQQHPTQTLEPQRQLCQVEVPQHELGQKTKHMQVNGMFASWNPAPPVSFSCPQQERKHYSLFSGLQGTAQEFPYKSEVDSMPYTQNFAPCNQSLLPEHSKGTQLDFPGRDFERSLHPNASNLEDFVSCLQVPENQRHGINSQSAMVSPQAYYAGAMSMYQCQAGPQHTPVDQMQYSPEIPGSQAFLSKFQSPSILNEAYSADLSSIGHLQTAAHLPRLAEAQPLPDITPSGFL
Briefly: Live whole cell (RSBMC) competitive uptake/binding assay with 3H-TCDD.
Description: The need for preincubation (see below) may also alter competition kinetics in this type of binding assay. Cells were plated at a density of 10,000 per well in Titertek 96-well plates, and left overnight to attach in medium. […] Cells were preincubated with cold drug one hour prior to addition of radiolabeled TCDD (specific activity 33.4 Ci/mmol; Chemsyn Lab, Kansas) (pilot studies having shown that preincubation was required to detect competition). One set of wells was incubated without cold drug to determine total binding. ^3H-TCDD (10,000 cpm/well in a volume of 10 μl) was added and incubated for 4 hours at room temperature. The media were aspirated and the cells washed 4× with 100 μl of PBS. 100 μl of 0.1N sulphuric acid was added and the cells were incubated at 37° C. overnight to break the cells open. 80 μl of the lysate was added to 5 ml of scintillation fluid and counted in a beta counter.

The test system of assay [2] is rat bone marrow cultures. Nature of the assay: APA in rat bone marrow cultures treated with BaP. It is filed as cell-based. Conditions: resveratrol (10^−6M) added with BaP. As for the experimental part:
In this experiment, the effects of the aryl hydrocarbon, benzo-a-pyrene (BaP) on the early events occurring during osteogenesis were determined. Ten-day old rat bone marrow cultures were treated with increasing concentrations of BaP. The effect of this treatment was monitored by APA as set out above.

For assay [3], the system named is rat bone marrow cultures. Nature of the assay: Mineral levels in rat bone marrow cultures treated with BaP. Format: cell-based. The note with it: resveratrol and BaP together.
The test system of assay [4] is IL-1 Beta. The note with it: Casper et al. 1999; cited from earlier work.

The IC50 is the concentration that gives 50% inhibition. A high value points to lower potency. Turning to `Clc1cc2c(cc1Cl)Oc1cc(Cl)c(Cl)cc1O2` [TCDD, 2,3,7,8-tetrachlorodibenzo-p-dioxin], the IC50 in assay [1] is around 3.7 nM. Also, in assay [1] (1 h preincubation with cold drug, 4 h with 3H-TCDD at room temperature), the “concentration reducing 3H-TCDD binding to background levels” value was 33 nM.

`Oc1ccc(C=Cc2cc(O)cc(O)c2)cc1` [resveratrol, 3,5,4′-trihydroxystilbene]: in assay [2], the “reversal of BaP's inhibitory effect on alkaline phosphatase” value is recorded as “reversal of BaP's inhibitory effect”. Besides, the “reversal of BaP effects on mineral levels” value in assay [3] (BaP 10^−8M) is “complete reversal”; in assay [3] (higher concentrations of BaP) it was “partial reversal”. The “induction of IL-1 Beta by AhR ligands” value in assay [4] was “prevent the induction”.
